Values of other authors in PMC9851200, “Multiparameter phenotypic screening for endogenous TFEB and TFE3 translocation identifies novel chemical series modulating lysosome function” (Autophagy, 2022).

Columns and labels:
Parameters in all cases: method as in original PKIS2 published data
[1] = target: kinases (KINOMEscan panel) (Homo sapiens, UniProt P10721); conditions: Published KINOMEscan, ref original PKIS2 published data, cited from earlier work
[2] = target: T1, kinases (KINOMEscan panel) (Homo sapiens, UniProt P35626); conditions: GRK3; Published KINOMEscan; ref original PKIS2 published data; cited from earlier work
T1 sequence (P35626 1-688): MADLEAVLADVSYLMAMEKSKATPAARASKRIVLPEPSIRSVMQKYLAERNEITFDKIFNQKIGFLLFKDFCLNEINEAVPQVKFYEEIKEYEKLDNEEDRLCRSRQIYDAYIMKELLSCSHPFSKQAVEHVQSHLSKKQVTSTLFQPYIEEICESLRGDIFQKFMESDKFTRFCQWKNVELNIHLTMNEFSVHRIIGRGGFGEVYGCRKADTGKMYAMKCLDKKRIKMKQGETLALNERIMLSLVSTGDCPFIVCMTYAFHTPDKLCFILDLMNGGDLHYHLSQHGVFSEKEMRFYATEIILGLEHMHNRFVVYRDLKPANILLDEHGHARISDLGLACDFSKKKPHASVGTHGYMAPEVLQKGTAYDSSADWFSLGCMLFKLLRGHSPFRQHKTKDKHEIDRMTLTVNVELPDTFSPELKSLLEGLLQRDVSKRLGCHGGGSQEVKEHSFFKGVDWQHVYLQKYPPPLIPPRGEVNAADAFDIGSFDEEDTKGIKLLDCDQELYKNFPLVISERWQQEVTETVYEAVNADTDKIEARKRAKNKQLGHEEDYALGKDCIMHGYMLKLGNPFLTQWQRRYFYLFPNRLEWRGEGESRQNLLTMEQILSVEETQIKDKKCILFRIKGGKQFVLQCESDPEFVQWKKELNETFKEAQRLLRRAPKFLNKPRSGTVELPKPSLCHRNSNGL

[3] = target: kinases (KINOMEscan panel) (Homo sapiens, UniProt P37023); conditions: ACVRL1; Published KINOMEscan; ref original PKIS2 published data; cited from earlier work
[4] = target: T2, kinases (KINOMEscan panel) (Homo sapiens, UniProt P51956); conditions: kinase NEK3; Published KINOMEscan; ref original PKIS2 published data; cited from earlier work
T2 sequence (P51956 1-506): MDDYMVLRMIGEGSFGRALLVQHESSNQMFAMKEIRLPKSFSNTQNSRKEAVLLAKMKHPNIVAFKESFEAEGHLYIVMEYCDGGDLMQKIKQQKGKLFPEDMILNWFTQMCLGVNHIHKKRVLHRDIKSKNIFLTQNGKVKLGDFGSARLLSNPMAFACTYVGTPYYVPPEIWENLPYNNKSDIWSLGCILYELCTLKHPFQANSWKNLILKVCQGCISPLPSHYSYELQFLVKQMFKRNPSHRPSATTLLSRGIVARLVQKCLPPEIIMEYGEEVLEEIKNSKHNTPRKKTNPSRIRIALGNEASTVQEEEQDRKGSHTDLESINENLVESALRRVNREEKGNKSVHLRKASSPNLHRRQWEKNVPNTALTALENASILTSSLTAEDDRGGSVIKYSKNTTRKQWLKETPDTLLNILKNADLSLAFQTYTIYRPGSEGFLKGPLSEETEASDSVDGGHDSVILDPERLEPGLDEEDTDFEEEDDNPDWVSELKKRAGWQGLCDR

[5] = target: kinases (KINOMEscan panel) (Homo sapiens, UniProt P54764); conditions: EPHA4; Published KINOMEscan; ref original PKIS2 published data; cited from earlier work
[6] = target: T3, kinases (KINOMEscan panel) (Homo sapiens, UniProt Q9BXA7); conditions: kinase TSSK1B; Published KINOMEscan; ref original PKIS2 published data; cited from earlier work
T3 sequence (Q9BXA7 1-367): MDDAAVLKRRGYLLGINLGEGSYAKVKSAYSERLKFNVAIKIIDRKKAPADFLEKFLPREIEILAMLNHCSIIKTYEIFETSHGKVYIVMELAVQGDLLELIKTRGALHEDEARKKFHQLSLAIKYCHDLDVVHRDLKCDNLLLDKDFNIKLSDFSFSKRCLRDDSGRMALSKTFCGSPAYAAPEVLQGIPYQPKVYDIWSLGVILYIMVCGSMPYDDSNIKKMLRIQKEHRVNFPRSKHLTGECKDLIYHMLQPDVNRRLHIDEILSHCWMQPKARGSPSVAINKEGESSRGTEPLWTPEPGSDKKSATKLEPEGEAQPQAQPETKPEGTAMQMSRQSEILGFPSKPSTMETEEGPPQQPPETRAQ

[7] = target: T4, kinases (KINOMEscan panel) (Homo sapiens, UniProt Q9NWZ3); conditions: IRAK4; Published KINOMEscan; ref original PKIS2 published data; cited from earlier work
T4 sequence (Q9NWZ3 1-460): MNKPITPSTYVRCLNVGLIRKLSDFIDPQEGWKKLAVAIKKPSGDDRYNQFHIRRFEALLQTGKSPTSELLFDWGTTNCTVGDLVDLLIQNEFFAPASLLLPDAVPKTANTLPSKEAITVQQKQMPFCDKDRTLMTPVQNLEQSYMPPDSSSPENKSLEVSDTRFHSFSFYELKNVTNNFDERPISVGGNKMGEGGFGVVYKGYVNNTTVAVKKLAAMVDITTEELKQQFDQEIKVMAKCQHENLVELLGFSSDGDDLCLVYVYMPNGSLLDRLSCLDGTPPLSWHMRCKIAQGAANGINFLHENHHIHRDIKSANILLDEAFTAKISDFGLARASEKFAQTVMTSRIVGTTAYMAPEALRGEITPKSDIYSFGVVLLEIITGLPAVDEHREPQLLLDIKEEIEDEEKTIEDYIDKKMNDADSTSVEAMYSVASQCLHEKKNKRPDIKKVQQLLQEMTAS

Chain of kinases (KINOMEscan panel) (Homo sapiens, UniProt P10721) (P10721 26-976): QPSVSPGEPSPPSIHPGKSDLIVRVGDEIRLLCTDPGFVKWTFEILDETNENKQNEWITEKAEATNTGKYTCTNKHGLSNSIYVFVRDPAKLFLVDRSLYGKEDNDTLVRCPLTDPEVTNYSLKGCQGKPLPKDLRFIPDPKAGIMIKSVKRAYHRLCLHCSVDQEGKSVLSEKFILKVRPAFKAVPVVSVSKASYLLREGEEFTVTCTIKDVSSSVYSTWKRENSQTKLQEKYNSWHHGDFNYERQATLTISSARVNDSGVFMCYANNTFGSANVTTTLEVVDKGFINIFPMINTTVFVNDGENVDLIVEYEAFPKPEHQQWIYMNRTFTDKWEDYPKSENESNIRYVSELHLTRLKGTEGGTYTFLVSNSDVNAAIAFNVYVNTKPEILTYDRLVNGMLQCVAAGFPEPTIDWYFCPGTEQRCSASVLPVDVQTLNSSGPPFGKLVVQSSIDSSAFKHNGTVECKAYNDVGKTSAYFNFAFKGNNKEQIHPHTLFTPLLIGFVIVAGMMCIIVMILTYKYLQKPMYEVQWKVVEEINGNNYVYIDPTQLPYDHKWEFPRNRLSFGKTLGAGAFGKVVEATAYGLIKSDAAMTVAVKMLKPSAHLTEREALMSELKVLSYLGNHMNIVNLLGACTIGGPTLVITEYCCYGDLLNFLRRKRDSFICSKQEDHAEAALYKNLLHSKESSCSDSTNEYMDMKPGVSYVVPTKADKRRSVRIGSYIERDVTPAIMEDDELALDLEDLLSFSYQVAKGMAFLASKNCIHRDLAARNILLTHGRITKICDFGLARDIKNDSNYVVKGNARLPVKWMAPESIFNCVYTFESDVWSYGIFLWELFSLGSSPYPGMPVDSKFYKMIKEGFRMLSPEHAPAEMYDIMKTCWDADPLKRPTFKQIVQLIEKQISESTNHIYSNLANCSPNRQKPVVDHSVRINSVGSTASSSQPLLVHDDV
Chain of kinases (KINOMEscan panel) (Homo sapiens, UniProt P37023) (P37023 22-503): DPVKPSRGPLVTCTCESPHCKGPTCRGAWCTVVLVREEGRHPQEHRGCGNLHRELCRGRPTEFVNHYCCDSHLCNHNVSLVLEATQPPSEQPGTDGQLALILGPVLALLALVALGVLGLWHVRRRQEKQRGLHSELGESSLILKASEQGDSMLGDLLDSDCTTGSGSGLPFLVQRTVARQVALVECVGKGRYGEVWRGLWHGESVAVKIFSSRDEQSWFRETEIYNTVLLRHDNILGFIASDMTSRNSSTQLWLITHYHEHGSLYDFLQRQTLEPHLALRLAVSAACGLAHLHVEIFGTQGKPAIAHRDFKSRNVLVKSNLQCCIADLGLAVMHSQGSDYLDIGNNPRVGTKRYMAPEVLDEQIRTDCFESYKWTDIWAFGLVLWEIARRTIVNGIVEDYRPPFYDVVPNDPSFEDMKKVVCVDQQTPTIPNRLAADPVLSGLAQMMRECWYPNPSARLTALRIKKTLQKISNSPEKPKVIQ
Chain of kinases (KINOMEscan panel) (Homo sapiens, UniProt P54764) (P54764 20-986): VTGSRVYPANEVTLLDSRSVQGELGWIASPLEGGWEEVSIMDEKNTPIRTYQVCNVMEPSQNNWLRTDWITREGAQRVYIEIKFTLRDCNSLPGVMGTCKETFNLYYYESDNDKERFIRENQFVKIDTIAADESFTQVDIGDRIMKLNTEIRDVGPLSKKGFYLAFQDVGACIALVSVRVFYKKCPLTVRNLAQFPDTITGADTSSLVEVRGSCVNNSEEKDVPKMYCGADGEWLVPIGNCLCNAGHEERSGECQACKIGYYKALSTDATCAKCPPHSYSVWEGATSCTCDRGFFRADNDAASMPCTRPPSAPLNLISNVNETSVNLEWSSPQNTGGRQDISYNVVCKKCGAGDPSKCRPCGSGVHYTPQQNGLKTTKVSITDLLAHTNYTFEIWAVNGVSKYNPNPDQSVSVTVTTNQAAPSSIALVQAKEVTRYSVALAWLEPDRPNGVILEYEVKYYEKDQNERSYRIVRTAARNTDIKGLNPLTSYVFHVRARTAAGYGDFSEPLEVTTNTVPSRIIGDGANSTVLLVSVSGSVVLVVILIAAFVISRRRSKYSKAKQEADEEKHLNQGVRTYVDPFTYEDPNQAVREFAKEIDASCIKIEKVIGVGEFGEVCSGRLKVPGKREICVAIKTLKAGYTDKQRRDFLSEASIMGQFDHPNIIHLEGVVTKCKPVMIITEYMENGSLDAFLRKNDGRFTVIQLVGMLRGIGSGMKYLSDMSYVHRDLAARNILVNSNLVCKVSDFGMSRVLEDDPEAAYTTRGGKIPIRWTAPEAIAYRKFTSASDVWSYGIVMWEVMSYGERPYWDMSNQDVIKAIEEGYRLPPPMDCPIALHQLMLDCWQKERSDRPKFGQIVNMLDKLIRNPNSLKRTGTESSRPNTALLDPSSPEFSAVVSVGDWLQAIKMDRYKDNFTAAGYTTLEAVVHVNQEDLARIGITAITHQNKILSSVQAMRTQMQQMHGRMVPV

For Cc1cccc(-c2nc(Nc3ccncc3)c3ccccc3n2)n1 [NK215], the “KINOMEscan KIT-autoinhibited” value ([1]; KIT-autoinhibited) is given as 0, the “KINOMEscan KIT” value ([1]; KIT) is given as 10 and the “KINOMEscan GRK3” value [2] is given as 0. The “KINOMEscan ACVRL1” value [3] was 65, the “KINOMEscan NEK3” value [4] was 30 and the “KINOMEscan EPHA4” value [5] was 18. For the same molecule, the “KINOMEscan TSSK1B” value [6] was 0 and the “KINOMEscan IRAK4” value [7] was 0.
